In patent US9073855B2, “BCL-2 selective apoptosis-inducing agents for the treatment of cancer and immune diseases” (AbbVie Inc., priority 2008, dated 2015) one finds Ki data, which are given here for 19 molecules.

One assay deals with GST-Bcl-2 (Homo sapiens, UniProt P10415). Kind of assay: TR-FRET binding assay, GST-Bcl-2 with F-Bak peptide probe. Particulars: TR-FRET Binding Affinity, GST-Bcl-2, F-Bak peptide probe. As to the method: (§1) Tb-anti-GST antibody was purchased from Invitrogen (Catalog No. PV4216).
GST-Bcl-2, sequence (P10415 whole entry): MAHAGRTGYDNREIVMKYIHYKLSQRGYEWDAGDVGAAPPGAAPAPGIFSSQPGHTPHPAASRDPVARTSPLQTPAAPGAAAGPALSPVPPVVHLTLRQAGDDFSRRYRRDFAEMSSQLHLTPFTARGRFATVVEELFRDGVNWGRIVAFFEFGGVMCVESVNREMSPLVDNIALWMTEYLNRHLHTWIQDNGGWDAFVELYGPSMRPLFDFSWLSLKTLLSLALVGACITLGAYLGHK
(§2) Representative compounds were serially diluted in dimethyl sulfoxide (DMSO) starting at 50 μM (2× starting concentration; 10% DMSO) and 10 μL were transferred into a 384-well plate.
(§3) The samples were then mixed on a shaker for 1 minute and incubated for an additional 3 hours at room temperature. For each assay, the probe/antibody and protein/probe/antibody were included on each assay plate as negative and positive controls, respectively. Fluorescence was measured on the ENVISION plate reader (Perkin Elmer) using a 340/35 nm excitation filter and 520/525 (F-Bak peptide) and 495/510 nm (Tb-labeled […] antibody) emission filters.
(§4) The inhibition constant (Ki) is the dissociation constant of an enzyme-inhibitor complex or a protein/small molecule complex, wherein the small molecule is inhibiting binding of one protein to another protein or peptide. […] Inhibition constants were determined using Wang's equation (Wang Z-X., An Exact Mathematical Expression For Describing Competitive Binding Of Two Different Ligands To A Protein Molecule. FEBS Lett. 1995, 360:111-4).
On the technique in general: TR-FRET usually uses a lanthanide donor and a delayed reading to cut background.

The target in another assay is GST-Bcl-XL (Homo sapiens, UniProt Q07817). Kind of assay: TR-FRET binding assay, GST-Bcl-XL with F-Bak peptide probe. The settings on record: TR-FRET Binding Affinity, GST-Bcl-XL, F-Bak peptide probe. As to the method:
as §1, §2, §3, §4

pKi: −log10 of the molar value. Where only a bound is given, the exact number is not on record here.

The term pKi denotes the Ki on a negative log10 scale, so that one unit is a factor of ten. A high value points to a small Ki.

GST-Bcl-XL, sequence (Q07817 whole entry): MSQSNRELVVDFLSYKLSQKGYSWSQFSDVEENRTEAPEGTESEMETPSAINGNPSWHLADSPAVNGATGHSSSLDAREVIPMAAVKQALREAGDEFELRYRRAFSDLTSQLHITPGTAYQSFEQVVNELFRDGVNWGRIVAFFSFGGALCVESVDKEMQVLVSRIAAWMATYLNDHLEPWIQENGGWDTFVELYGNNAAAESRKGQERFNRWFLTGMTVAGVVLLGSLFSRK

Consider `O=C(NS(=O)(=O)c1ccc(NCC2CCOCC2)c([N+](=O)[O-])c1)c1ccc(N2CCN(Cc3ccccc3-c3ccc(Cl)cc3)CC2)cc1Oc1cccc2ccccc12` [Example 34, 4-{4-[(4′-chloro-1,1′-biphenyl-2-yl)methyl]piperazin-1-yl}-2-(1-naphthyloxy)-N-({3-nitro-4-[(tetrahydro-2H-pyran-4-ylmethyl)amino]phenyl}sulfonyl)benzamide], for which the negative logarithm of the Ki (pKi) at GST-Bcl-2 was 8.70; at GST-Bcl-XL, 7.06.

For `O=C(NS(=O)(=O)c1ccc(NCCCN2CCOCC2)c([N+](=O)[O-])c1)c1ccc(N2CCN(Cc3ccccc3-c3ccc(Cl)cc3)CC2)cc1Oc1ccc2ccccc2c1` [Example 36, 4-{4-[(4′-chloro-1,1′-biphenyl-2-yl)methyl]piperazin-1-yl}-N-({4-[(3-morpholin-4-ylpropyl)amino]-3-nitrophenyl}sulfonyl)-2-(2-naphthyloxy)benzamide], the negative logarithm of the Ki (pKi) was 9.10 at GST-Bcl-2 and 8.05 at GST-Bcl-XL.

For the molecule `O=C(NS(=O)(=O)c1ccc(NCC2CCOCC2)c(S(=O)(=O)C(F)(F)F)c1)c1ccc(N2CCN(Cc3ccccc3-c3ccc(Cl)cc3)CC2)cc1Oc1ccc2ccccc2c1` [Example 37, 4-{4-[(4′-chloro-1,1′-biphenyl-2-yl)methyl]piperazin-1-yl}-2-(2-naphthyloxy)-N-({4-[(tetrahydro-2H-pyran-4-ylmethyl)amino]-3-[(trifluoromethyl)sulfonyl]phenyl}sulfonyl)benzamide], the figures for the pKi at GST-Bcl-2 and on GST-Bcl-XL were 9.33 and 7.35, respectively.

`CN(C)CCCNc1ccc(S(=O)(=O)NC(=O)c2ccc(N3CCN(Cc4ccccc4-c4ccc(Cl)cc4)CC3)cc2Oc2cccc3cnccc23)cc1[N+](=O)[O-]` [Example 42, 4-{4-[(4′-chloro-1,1′-biphenyl-2-yl)methyl]piperazin-1-yl}-N-[(4-{[3-(dimethylamino)propyl]amino}-3-nitrophenyl)sulfonyl]-2-(isoquinolin-5-yloxy)benzamide]: the negative logarithm of the Ki (pKi) is 10.32 at GST-Bcl-2 and 8.42 on GST-Bcl-XL.

Regarding `CN(C)CCCNc1ccc(S(=O)(=O)NC(=O)c2ccc(N3CCN(Cc4ccccc4-c4ccc(Cl)cc4)CC3)cc2Oc2ccc3cc[nH]c3c2)cc1[N+](=O)[O-]` [Example 47, 4-{4-[(4′-chloro-1,1′-biphenyl-2-yl)methyl]piperazin-1-yl}-N-[(4-{[3-(dimethylamino)propyl]amino}-3-nitrophenyl)sulfonyl]-2-(1H-indol-6-yloxy)benzamide], the negative-log Ki (pKi) was 8.18 on GST-Bcl-2 and 6.98 on GST-Bcl-XL.

As for `CC1(C)CCC(c2ccc(Cl)cc2)=C(CN2CCN(c3ccc(C(=O)NS(=O)(=O)c4ccc(NCCCN5CCOCC5)c([N+](=O)[O-])c4)c(Oc4ccc5[nH]ccc5c4)c3)CC2)C1` [Example 50, 4-(4-{[2-(4-chlorophenyl)-5,5-dimethylcyclohex-1-en-1-yl]methyl}piperazin-1-yl)-2-(1H-indol-5-yloxy)-N-({4-[(3-morpholin-4-ylpropyl)amino]-3-nitrophenyl}sulfonyl)benzamide], the pKi on GST-Bcl-2 is 9.33; on GST-Bcl-XL, 7.05.

Turning to `CN(C)CCCNc1ccc(S(=O)(=O)NC(=O)c2ccc(N3CCN(CC4=C(c5ccc(Cl)cc5)CCC(C)(C)C4)CC3)cc2Oc2ccc3[nH]ccc3c2)cc1[N+](=O)[O-]` [Example 51, 4-(4-{[2-(4-chlorophenyl)-5,5-dimethylcyclohex-1-en-1-yl]methyl}piperazin-1-yl)-N-[(4-{[3-(dimethylamino)propyl]amino}-3-nitrophenyl)sulfonyl]-2-(1H-indol-5-yloxy)benzamide], the pKi at GST-Bcl-2 is 9.60; at GST-Bcl-XL it was 7.81.

On to `O=C(NS(=O)(=O)c1ccc(NCCCN2CCOCC2)c([N+](=O)[O-])c1)c1ccc(N2CCN(Cc3ccccc3-c3ccc(Cl)cc3)CC2)cc1Oc1cccc2[nH]ccc12` [Example 58, 4-{4-[(4′-chloro-1,1′-biphenyl-2-yl)methyl]piperazin-1-yl}-2-(1H-indol-4-yloxy)-N-({4-[(3-morpholin-4-ylpropyl)amino]-3-nitrophenyl}sulfonyl)benzamide], for which the results for the negative-log Ki (pKi) at GST-Bcl-2 and on GST-Bcl-XL were 8.96 and 6.54, respectively.

Regarding `COc1ccc(S(=O)(=O)NC(=O)c2ccc(N3CCN(Cc4ccccc4-c4ccc(Cl)cc4)CC3)cc2Oc2ccccc2)cc1` [Example 60, 4-{4-[(4′-chloro-1,1′-biphenyl-2-yl)methyl]piperazin-1-yl}-N-[(4-methoxyphenyl)sulfonyl]-2-phenoxybenzamide], the pKi is 7.72 at GST-Bcl-2 and less than 6.18 on GST-Bcl-XL.

In the case of `Cc1ccc(S(=O)(=O)NC(=O)c2ccc(N3CCN(Cc4ccccc4-c4ccc(Cl)cc4)CC3)cc2Oc2ccccc2)cc1` [Example 61, 4-{4-[(4′-chloro-1,1′-biphenyl-2-yl)methyl]piperazin-1-yl}-N-[(4-methylphenyl)sulfonyl]-2-phenoxybenzamide], the pKi on GST-Bcl-2 was 7.28; at GST-Bcl-XL it was less than 6.18.

For the molecule `O=C(NS(=O)(=O)c1ccc(NCC2CCOCC2)c(S(=O)(=O)C(F)(F)F)c1)c1ccc(N2CCN(Cc3ccccc3-c3ccc(Cl)cc3)CC2)cc1Oc1ccc2[nH]ccc2c1` [Example 62, 4-{4-[(4′-chloro-1,1′-biphenyl-2-yl)methyl]piperazin-1-yl}-2-(1H-indol-5-yloxy)-N-({4-[(tetrahydro-2H-pyran-4-ylmethyl)amino]-3-[(trifluoromethyl)sulfonyl]phenyl}sulfonyl)benzamide], the figures for the pKi at GST-Bcl-2 and on GST-Bcl-XL were 8.45 and 6.24, respectively.

In the case of `CN(C)CCCNc1ccc(S(=O)(=O)NC(=O)c2ccc(N3CCN(Cc4ccccc4-c4ccc(Cl)cc4)CC3)cc2Oc2ccc3[nH]ccc3c2)cc1S(=O)(=O)C(F)(F)F` [Example 64, 4-{4-[(4′-chloro-1,1′-biphenyl-2-yl)methyl]piperazin-1-yl}-N-({4-{[3-(dimethylamino)propyl]amino}-3-[(trifluoromethyl)sulfonyl]phenyl}sulfonyl)-2-(1H-indol-5-yloxy)benzamide], the negative logarithm of the Ki (pKi) at GST-Bcl-2 was 9.28; on GST-Bcl-XL it was 7.39.

Turning to `O=C(NS(=O)(=O)c1ccc(NCCCN2CCOCC2)c(S(=O)(=O)C(F)(F)F)c1)c1ccc(N2CCN(Cc3ccccc3-c3ccc(Cl)cc3)CC2)cc1Oc1cccc2[nH]ccc12` [Example 65, 4-{4-[(4′-chloro-1,1′-biphenyl-2-yl)methyl]piperazin-1-yl}-2-(1H-indol-4-yloxy)-N-({4-[(3-morpholin-4-ylpropyl)amino]-3-[(trifluoromethyl)sulfonyl]phenyl}sulfonyl)benzamide], the values for the pKi at GST-Bcl-2 and on GST-Bcl-XL were 8.34 and 7.66, respectively.

Turning to `CN(C)CCCNc1ccc(S(=O)(=O)NC(=O)c2ccc(N3CCN(CC4=C(c5ccc(Cl)cc5)CC(C)(C)CC4)CC3)cc2Oc2ccc3[nH]ccc3c2)cc1S(=O)(=O)C(F)(F)Cl` [Example 67, N-[(3-{[chloro(difluoro)methyl]sulfonyl}-4-{[3-(dimethylamino)propyl]amino}phenyl)sulfonyl]-4-(4-{[2-(4-chlorophenyl)-4,4-dimethylcyclohex-1-en-1-yl]methyl}piperazin-1-yl)-2-(1H-indol-5-yloxy)benzamide], the results for the negative-log Ki (pKi) on GST-Bcl-2 and at GST-Bcl-XL were 6.54 and less than 6.18, respectively.

As to `O=C(NS(=O)(=O)c1ccc(NCCCN2CCOCC2)cc1)c1ccc(N2CCN(Cc3ccccc3-c3ccc(Cl)cc3)CC2)cc1Oc1ccccc1` [Example 78, 4-{4-[(4′-chloro-1,1′-biphenyl-2-yl)methyl]piperazin-1-yl}-N-({4-[(3-morpholin-4-ylpropyl)amino]phenyl}sulfonyl)-2-phenoxybenzamide], the pKi on GST-Bcl-2 was 6.95; at GST-Bcl-XL, less than 6.18.

As to `O=C(NS(=O)(=O)c1ccc(NCC2CCOCC2)c([N+](=O)[O-])c1)c1ccc(N2CCN(Cc3ccccc3-c3ccc(Cl)cc3)CC2)cc1Oc1cccnc1` [Example 79, 4-{4-[(4′-chloro-1,1′-biphenyl-2-yl)methyl]piperazin-1-yl}-N-({3-nitro-4-[(tetrahydro-2H-pyran-4-ylmethyl)amino]phenyl}sulfonyl)-2-(pyridin-3-yloxy)benzamide], the pKi on GST-Bcl-2 was 8.69; at GST-Bcl-XL, 7.01.

Take `CN1CCN(CCNc2ccc(S(=O)(=O)NC(=O)c3ccc(N4CCN(Cc5ccccc5-c5ccc(Cl)cc5)CC4)cc3Oc3ccccc3)cc2[N+](=O)[O-])CC1` [Example 85, 4-{4-[(4′-chloro-1,1′-biphenyl-2-yl)methyl]piperazin-1-yl}-N-[(4-{[2-(4-methylpiperazin-1-yl)ethyl]amino}-3-nitrophenyl)sulfonyl]-2-phenoxybenzamide]: the negative-log Ki (pKi) at GST-Bcl-2 is 9.63; at GST-Bcl-XL, 7.94.

With `CN(C)CCCN(C)c1ccc(S(=O)(=O)NC(=O)c2ccc(N3CCN(Cc4ccccc4-c4ccc(Cl)cc4)CC3)cc2Oc2ccccc2)cc1[N+](=O)[O-]` [Example 87, 4-{4-[(4′-chloro-1,1′-biphenyl-2-yl)methyl]piperazin-1-yl}-N-({4-[[3-(dimethylamino)propyl](methyl)amino]-3-nitrophenyl}sulfonyl)-2-phenoxybenzamide], the negative-log Ki (pKi) on GST-Bcl-2 was 9.12; at GST-Bcl-XL it was 6.39.

As to `CN(C)CCCNc1ccc(S(=O)(=O)NC(=O)c2ccc(N3CCN(Cc4ccccc4-c4ccc(Cl)cc4)CC3)cc2Oc2ccccc2)cc1C#N` [Example 90, 4-{4-[(4′-chloro-1,1′-biphenyl-2-yl)methyl]piperazin-1-yl}-N-[(3-cyano-4-{[3-(dimethylamino)propyl]amino}phenyl)sulfonyl]-2-phenoxybenzamide], the negative-log Ki (pKi) was 8.67 at GST-Bcl-2 and 6.55 at GST-Bcl-XL.
